Source: PubChem BioAssay AID256 (DTP/NCI, 2004)
“And” between values parts separate entries of the source, which are not always exact repeats. Equal values may be shown once. Inconclusive results and toxic doses are left out.

Tested on: CD2F1 mice, L1210 leukemia ip, survival T/C
Test: NCI In Vivo Anticancer Drug Screen. Data for tumor model L1210 Leukemia (intraperitoneal) in CD2F1 (CDF1) mice
Details: higher = longer survival
Outline: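 Activity against a transplanted murine tumor was judged by comparing the compound group with a vehicle group. The outcome in the treated animals was divided by that in the controls.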

[1] = endpoint: mean survival time, dose: 100.0 mg/kg/injection, schedule: Q01DX009 (ip), vehicle: saline with Tween-80
[2] = endpoint: mean survival time, dose: 100.0 mg/kg/injection, schedule: Q04DX003 (ip), vehicle: saline with Tween-80
[3] = endpoint: mean survival time, dose: 200.0 mg/kg/injection, schedule: Q01DX009 (ip), vehicle: saline with Tween-80
[4] = endpoint: mean survival time, dose: 200.0 mg/kg/injection, schedule: Q04DX003 (ip), vehicle: saline with Tween-80
[5] = endpoint: mean survival time, dose: 400.0 mg/kg/injection, schedule: Q04DX003 (ip), vehicle: saline with Tween-80
[6] = endpoint: mean survival time, dose: 400.0 mg/kg/injection, schedule: Q01DX009 (ip), vehicle: saline with Tween-80

Compound: CC(C)NC(=O)CCn1c(=O)c2ccccc2c(=O)n1C
- T/C (endpoint: mean survival time, dose: 25.0 mg/kg/injection, schedule: Q04DX003 (ip), vehicle: saline): 98 % of control
- T/C (endpoint: mean survival time, dose: 50.0 mg/kg/injection, schedule: Q04DX003 (ip), vehicle: saline): 98 % of control
- T/C (endpoint: mean survival time, dose: 100.0 mg/kg/injection, schedule: Q04DX003 (ip), vehicle: saline): 96 % of control
- T/C (endpoint: mean survival time, dose: 200.0 mg/kg/injection, schedule: Q04DX003 (ip), vehicle: saline): 106 % of control
- T/C (endpoint: mean survival time, dose: 400.0 mg/kg/injection, schedule: Q04DX003 (ip), vehicle: saline): 101 % of control

Compound: Cn1cnc(=S)c2ccccc21
- T/C (endpoint: mean survival time, dose: 25.0 mg/kg/injection, schedule: Q04DX003 (ip), vehicle: Klucel (hydroxypropylcellulose) (HPC)): 104 % of control
- T/C (endpoint: mean survival time, dose: 50.0 mg/kg/injection, schedule: Q04DX003 (ip), vehicle: Klucel (hydroxypropylcellulose) (HPC)): 93 % of control

Compound: O=C/C=C/C=C/C=C/c1ccccc1
- T/C (endpoint: mean survival time, dose: 62.5 mg/kg/injection, schedule: Q01DX001 (ip), vehicle: distilled water + alcohol): 93 % of control
- T/C (endpoint: mean survival time, dose: 125.0 mg/kg/injection, schedule: Q01DX001 (ip), vehicle: distilled water + alcohol): 96 % of control
- T/C (endpoint: mean survival time, dose: 250.0 mg/kg/injection, schedule: Q01DX001 (ip), vehicle: distilled water + alcohol): 92 % of control
- T/C (endpoint: mean survival time, dose: 500.0 mg/kg/injection, schedule: Q01DX001 (ip), vehicle: distilled water + alcohol): 90 % of control
- T/C (endpoint: median survival time, dose: 50.0 mg/kg/injection, schedule: Q01DX009 (ip), vehicle: saline): 98 % of control
- T/C (endpoint: median survival time, dose: 100.0 mg/kg/injection, schedule: Q01DX009 (ip), vehicle: saline): 106 % of control
- T/C (endpoint: median survival time, dose: 200.0 mg/kg/injection, schedule: Q01DX009 (ip), vehicle: saline): 100 % of control
- T/C (endpoint: median survival time, dose: 400.0 mg/kg/injection, schedule: Q01DX009 (ip), vehicle: saline): 101 % of control
- T/C (endpoint: median survival time, dose: 800.0 mg/kg/injection, schedule: Q01DX009 (ip), vehicle: saline): 100 % of control

Compound: c1cc[c]([Sb]([c]2ccccc2)[c]2ccccc2)cc1
- T/C (endpoint: mean survival time, dose: 20.0 mg/kg/injection, schedule: Q04DX003 (ip), vehicle: saline sonified): 97 % of control
- T/C (endpoint: mean survival time, dose: 40.0 mg/kg/injection, schedule: Q04DX003 (ip), vehicle: saline sonified): 94 % of control

Compound: CCOC(=O)C([NH-])C([NH-])C(=O)OCC.[Cl][Pt+2][Cl] (stereo not drawn)
- T/C (endpoint: mean survival time, dose: 12.5 mg/kg/injection, schedule: Q04DX003 (ip), vehicle: saline with Tween-80): 186 % of control
- T/C (endpoint: mean survival time, dose: 25.0 mg/kg/injection, schedule: Q04DX003 (ip), vehicle: saline with Tween-80): 195 % of control

Compound: NNC(=S)Nc1ccccc1
- T/C (endpoint: mean survival time, dose: 20.0 mg/kg/injection, schedule: Q04DX003 (ip), vehicle: saline with Tween-80): 98 % of control

Compound: CC(C)CC(CCl)Cc1nc2ccccc2[nH]1 (stereo not drawn)
- T/C (endpoint: mean survival time, dose: 100.0 mg/kg/injection, schedule: Q04DX002 (ip), vehicle: saline with Tween-80): 94 % of control
- T/C (endpoint: mean survival time, dose: 200.0 mg/kg/injection, schedule: Q04DX002 (ip), vehicle: saline with Tween-80): 97 % of control

Compound: Clc1ncnc2c1ncn2CCCn1cnc2c(Cl)ncnc21
- T/C (endpoint: mean survival time, dose: 12.5 mg/kg/injection, schedule: Q01DX009 (ip), vehicle: Klucel (hydroxypropylcellulose) (HPC)): 94 % of control
- T/C (endpoint: mean survival time, dose: 25.0 mg/kg/injection, schedule: Q01DX009 (ip), vehicle: Klucel (hydroxypropylcellulose) (HPC)): 90 % of control
- T/C (endpoint: mean survival time, dose: 50.0 mg/kg/injection, schedule: Q01DX009 (ip), vehicle: Klucel (hydroxypropylcellulose) (HPC)): 94 % of control
- T/C (endpoint: mean survival time, dose: 100.0 mg/kg/injection, schedule: Q01DX009 (ip), vehicle: Klucel (hydroxypropylcellulose) (HPC)): 103 % of control
- T/C (endpoint: mean survival time, dose: 200.0 mg/kg/injection, schedule: Q01DX009 (ip), vehicle: Klucel (hydroxypropylcellulose) (HPC)): 101 % of control

Compound: ClCc1ccc2ccccc2n1
- T/C [1]: 109 % of control
- T/C [2]: 104 % of control
- T/C [3]: 104 % of control
- T/C [4]: 104 % of control
- T/C [5]: 101 % of control

Compound: COC(=O)c1[nH]nc(-c2ccc(N)cc2)c1N
- T/C (endpoint: mean survival time, dose: 3.13 mg/kg/injection, schedule: Q01DX005 (ip), vehicle: other): 114 % of control
- T/C (endpoint: mean survival time, dose: 6.25 mg/kg/injection, schedule: Q01DX005 (ip), vehicle: other): 93 % of control
- T/C (endpoint: mean survival time, dose: 12.5 mg/kg/injection, schedule: Q01DX005 (ip), vehicle: other): 107 % of control
- T/C (endpoint: mean survival time, dose: 25.0 mg/kg/injection, schedule: Q01DX005 (ip), vehicle: other): 93 % of control
- T/C (endpoint: mean survival time, dose: 50.0 mg/kg/injection, schedule: Q01DX005 (ip), vehicle: other): 93 % of control

Compound: CC(C)(CCC#N)/C(=N\Nc1ccc([N+](=O)[O-])cc1[N+](=O)[O-])c1ccccc1
- T/C (endpoint: mean survival time, dose: 75.0 mg/kg/injection, schedule: Q04DX002 (ip), vehicle: saline with Tween-80): 90 % of control
- T/C (endpoint: mean survival time, dose: 150.0 mg/kg/injection, schedule: Q04DX002 (ip), vehicle: saline with Tween-80): 102 % of control
- T/C (endpoint: mean survival time, dose: 300.0 mg/kg/injection, schedule: Q04DX002 (ip), vehicle: saline with Tween-80): 94 % of control

Compound: O=C(O)C1C2OC(C(Br)C2Br)C1C(=O)O (stereo not drawn)
- T/C (endpoint: mean survival time, dose: 50.0 mg/kg/injection, schedule: Q01DX009 (ip), vehicle: saline): 102 % of control
- T/C (endpoint: mean survival time, dose: 100.0 mg/kg/injection, schedule: Q01DX009 (ip), vehicle: saline): 104 % of control

Compound: O=c1c2ccccc2[nH]c2cccc([N+](=O)[O-])c12
- T/C [1]: 102 % of control
- T/C [2]: 94 % of control
- T/C [3]: 98 % of control
- T/C [4]: 94 % of control
- T/C [6]: 96 % of control
- T/C [5]: 91 % of control

Compound: CCCc1nc(N)[nH]c(=O)c1CCCCc1ccccc1
- T/C [2]: 88 % of control
- T/C [4]: 94 % of control
- T/C [5]: 93 % of control

Compound: C[N+]([O-])(C/C=C/c1ccccc1)c1ccccc1 (stereo not drawn)
- T/C (endpoint: mean survival time, dose: 75.0 mg/kg/injection, schedule: Q01DX001 (ip), vehicle: saline): 101 % of control
- T/C (endpoint: mean survival time, dose: 150.0 mg/kg/injection, schedule: Q01DX001 (ip), vehicle: saline): 97 % of control
- T/C (endpoint: mean survival time, dose: 300.0 mg/kg/injection, schedule: Q01DX001 (ip), vehicle: saline): 98 % of control

Compound: Nc1nc2ncn(O)c2c(=O)[nH]1
- T/C (endpoint: median survival time, dose: 3.12 mg/kg/injection, schedule: Q01DX009 (ip), vehicle: other): 176 % of control
- T/C (endpoint: median survival time, dose: 6.25 mg/kg/injection, schedule: Q01DX009 (ip), vehicle: other): 195 % of control
- T/C (endpoint: median survival time, dose: 6.25 mg/kg/injection, schedule: Q01DX009 (ip), vehicle: water): 168 % of control and 172 % of control
- T/C (endpoint: median survival time, dose: 12.5 mg/kg/injection, schedule: Q01DX009 (ip), vehicle: other): 162 % of control
- T/C (endpoint: median survival time, dose: 12.5 mg/kg/injection, schedule: Q01DX009 (ip), vehicle: water): 168 % of control and 234 % of control
- T/C (endpoint: median survival time, dose: 25.0 mg/kg/injection, schedule: Q01DX009 (ip), vehicle: other): 101 % of control
- T/C (endpoint: median survival time, dose: 25.0 mg/kg/injection, schedule: Q01DX009 (ip), vehicle: water): 164 % of control

Compound: CCCCN(CCCC)CCC(=O)OCC
- T/C [1]: 101 % of control
- T/C [3]: 95 % of control
- T/C [6]: 112 % of control

Compound: CCCCCCCCCCCC(O)CCCCC (stereo not drawn)
- T/C (endpoint: mean survival time, dose: 100.0 mg/kg/injection, schedule: Q01DX009 (ip), vehicle: other): 95 % of control
- T/C (endpoint: mean survival time, dose: 100.0 mg/kg/injection, schedule: Q04DX003 (ip), vehicle: other): 91 % of control
- T/C (endpoint: mean survival time, dose: 200.0 mg/kg/injection, schedule: Q01DX009 (ip), vehicle: other): 91 % of control
- T/C (endpoint: mean survival time, dose: 200.0 mg/kg/injection, schedule: Q04DX003 (ip), vehicle: other): 103 % of control
- T/C (endpoint: mean survival time, dose: 400.0 mg/kg/injection, schedule: Q01DX009 (ip), vehicle: other): 98 % of control
- T/C (endpoint: mean survival time, dose: 400.0 mg/kg/injection, schedule: Q04DX003 (ip), vehicle: other): 96 % of control

Compound: FC(F)(F)c1ccc2ccc3ccc(Cl)cc3c2c1
- T/C (endpoint: mean survival time, dose: 37.5 mg/kg/injection, schedule: Q01DX009 (ip), vehicle: saline): 97 % of control
- T/C (endpoint: mean survival time, dose: 75.0 mg/kg/injection, schedule: Q01DX009 (ip), vehicle: saline): 94 % of control
- T/C (endpoint: mean survival time, dose: 75.0 mg/kg/injection, schedule: Q04DX003 (ip), vehicle: saline): 91 % of control
- T/C (endpoint: mean survival time, dose: 150.0 mg/kg/injection, schedule: Q01DX009 (ip), vehicle: saline): 91 % of control
- T/C (endpoint: mean survival time, dose: 150.0 mg/kg/injection, schedule: Q04DX003 (ip), vehicle: saline): 95 % of control
- T/C (endpoint: mean survival time, dose: 300.0 mg/kg/injection, schedule: Q04DX003 (ip), vehicle: saline): 97 % of control

Compound: CCOC(=O)NNC(=O)Nc1ccccc1F
- T/C [1]: 104 % of control
- T/C [3]: 88 % of control
- T/C [6]: 94 % of control

Compound: O=C(Nc1cccc([N+](=O)[O-])c1)c1ccc(Cl)cc1Cl
- T/C [1]: 90 % of control
- T/C [3]: 92 % of control
- T/C [6]: 90 % of control
